The numbers were not newly measured in patent publication US11344598B2, “Herbal nanoformulations for treating psoriasis and other skin conditions” (Sirbal Ltd., priority 2016, dated 2022), which cites them from elsewhere.

For the series the following is noted: in words.

Consider `CCC(=O)O[C@]1(C(=O)CCl)[C@@H](C)C[C@H]2[C@@H]3CCC4=CC(=O)C=C[C@]4(C)[C@@]3(F)[C@@H](O)C[C@@]21C` [Clobetasol propionate, clobetasol propionate], for which the solubility in water entry is “insoluble in water”.
